In ChEMBL document CHEMBL1201862, “PubChem BioAssay data set” (2004):
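Following 48 hours of exposure in 96-well plates, responses at five concentrations were used to interpolate endpoints linearly. GI50 marks 50% less growth.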 The source made the active and inactive calls. No stated cut-off is given here; in the data, active = GI50 up to about 1.1 µM and inactive = higher.

Key:
Test in all cases: growth of human tumour cells (NCI), 48 h
[1] = test system: 786-0
[2] = test system: DMS-273
[3] = test system: DU-145
[4] = test system: EKVX
[5] = test system: HCC 2998
[6] = test system: HCT-116
[7] = test system: HOP-18
[8] = test system: HOP-92
[9] = test system: HT-29
[10] = test system: KM-20L2
[11] = test system: M14
[12] = test system: MDA-MB-231
[13] = test system: NCI-H226
[14] = test system: NCI-H460
[15] = test system: OVCAR-5
[16] = test system: SF-295
[17] = test system: SK-OV-3
[18] = test system: SN12C
[19] = test system: UACC-62
[20] = test system: UO-31

Measured: GI50

O=c1cc(-c2ccccc2)oc2ccc(Cl)cc12 [6-CHLOROFLAVONE]
inactive: [1] 33.3 µM | [2] 72.9 µM | [3] > 56.6 µM | [4] 17.4 µM | [5] > 56.4 µM | [6] 46.6 µM | [7] > 100 µM | [8] 22.8 µM | [9] > 100 µM | [10] > 100 µM | [11] 65.5 µM | [12] 18.1 µM | [13] > 84.7 µM | [14] > 100 µM | [15] > 100 µM | [16] 44.2 µM | [17] 68.2 µM | [18] > 69.8 µM | [19] > 67.1 µM | [20] 37.4 µM

CN/C=C(/c1ccc(OC)cc1)C(O)c1ccc(OC)c(OC)c1 (stereo unspecified)
inactive: [1] > 100 µM | [2] > 100 µM | [4] > 100 µM | [5] > 100 µM | [6] > 100 µM | [7] > 100 µM | [8] > 100 µM | [9] > 100 µM | [10] > 100 µM | [11] > 100 µM | [13] > 100 µM | [14] > 100 µM | [15] > 100 µM | [16] > 100 µM | [17] > 100 µM | [18] > 100 µM | [19] > 100 µM | [20] > 100 µM

O=NN(CCCl)C(=O)NC1CCCCC1 [LOMUSTINE]
inactive: [1] 16.4 µM | [2] 48.1 µM | [3] 42.1 µM | [4] 72.8 µM | [5] 56 µM | [6] 38.8 µM | [7] 31.6 µM | [8] 31.3 µM | [9] 53.8 µM | [10] 60.3 µM | [11] 41 µM | [12] 21.6 µM | [13] 64.4 µM | [14] 36.1 µM | [15] 81.1 µM | [16] 32 µM | [17] 71.8 µM | [18] 46.6 µM | [19] 12.7 µM | [20] 84.1 µM

O=C(O/N=C1/CCC/C1=C\c1ccccc1)c1ccc(Cl)c(Cl)c1
inactive: [1] > 100 µM | [2] > 100 µM | [4] > 100 µM | [5] > 100 µM | [6] > 100 µM | [7] > 100 µM | [8] > 100 µM | [9] > 100 µM | [10] > 100 µM | [11] > 100 µM | [13] > 100 µM | [14] > 100 µM | [15] > 100 µM | [16] > 100 µM | [17] > 100 µM | [18] > 100 µM | [19] > 100 µM | [20] > 100 µM

Cc1cc(Cl)ccc1NC(=O)CC/C(CC(=O)C(C)C)=N\NC(=O)C[n+]1ccccc1
inactive: [1] > 100 µM | [2] > 100 µM | [4] > 100 µM | [5] > 100 µM | [6] > 100 µM | [7] > 100 µM | [8] > 100 µM | [9] > 100 µM | [10] > 100 µM | [11] > 100 µM | [13] > 100 µM | [14] > 100 µM | [15] > 100 µM | [16] > 100 µM | [17] > 100 µM | [18] > 100 µM | [19] > 100 µM | [20] > 100 µM

COc1cccc(/C=C2\N=C(Cl)OC2=O)c1O
inactive: [1] > 94.6 µM | [2] > 100 µM | [3] > 100 µM | [4] > 100 µM | [5] > 100 µM | [6] > 100 µM | [7] > 100 µM | [8] > 100 µM | [9] > 100 µM | [10] > 100 µM | [11] > 100 µM | [13] > 100 µM | [14] > 100 µM | [15] > 100 µM | [16] > 100 µM | [17] > 38.7 µM | [18] > 100 µM | [19] > 100 µM | [20] > 100 µM

CCOC(=O)C(/N=N\c1ccc(S(N)(=O)=O)cc1)C(C)=O (stereo unspecified)
inactive: [1] > 100 µM | [2] > 100 µM | [4] > 100 µM | [5] 99.5 µM | [6] > 100 µM | [7] > 100 µM | [8] > 100 µM | [9] > 100 µM | [10] > 100 µM | [11] > 100 µM | [13] > 100 µM | [14] > 100 µM | [15] > 100 µM | [16] > 100 µM | [17] > 100 µM | [18] > 100 µM | [19] > 100 µM | [20] > 100 µM
